# Tests used:
# [1] = Stability of aqueous solution, time for 5% drug loss (t95); format: physicochemical; details: 37° C.
# Source text: Administering one or more epothilones of formula I, Ia, Ib or Ic, or a pharmaceutically acceptable salt, solvate, clathrate, hydrate, or prodrug thereof, in combination with a pharmaceutically acceptable acid neutralizing buffer provides increased bioavailability of the one or more epothilones of formula I, Ia, Ib or Ic. Without being limited by theory, it is believed that the increased bioavailability is due, at least in significant part, to the buffer decreasing the rate of decomposition of the epothilones of formula I, Ia, Ib or Ic, or a pharmaceutically acceptable salt, solvate, clathrate, hydrate, or prodrug thereof, in the acidic environment of the stomach. Certain epothilones, including the epothilone of formula Ic, are unstable in acidic aqueous environments and decompose, presumably by an acid catalyzed hydrolytic opening of the epoxide ring. For example, the time for 5% drug loss (t95) at 37° C. for an aqueous solution of Compound A (epothilone of formula Ic) is approximately 14 h at pH 7, but <0.2 hours at pH 2.5. Thus, when epothilones of formula I, Ia, Ib or Ic, or a pharmaceutically acceptable salt, solvate, clathrate, hydrate, or prodrug thereof, are orally administered they decompose in the stomach of the patient such that they are either minimally absorbed or not absorbed by the gastrointestinal tract.
# [2] = Degradation of drug during solution preparation and lyophilization; format: physicochemical; details: dissolution at about 5° C., pH 6.0, lyophilization at −15° C. 34 hours, drying at 25° C. 24 hours
# Experimental: [1S-[1R*,3R*(E),7R*,10S*,11R*,12R*,16S*]]-3-[2-[2-(Aminomethyl)-4-thiazolyl]-1-methylethenyl]-7,11-dihydroxy-8,8,10,12,16-pentamethyl-4,17-dioxabicyclo[14.1.0]heptadecane-5,9-dione (compound of formula Ic) (8.7 g) was dissolved in 1280 mL of an aqueous solution of citric acid (10.1 grams) and dextran 40 (80 grams) which had been pre-cooled to about 5° C. Once the drug powder had become completely dissolved, the solution pH was adjusted to 6.0 and Water for Injection (178 mL) was added.
# The solution formed above was promptly lyophilized in a Virtis Genesis(TM) lyophilizer at −15° C. with exclusion of light over a period of 34 hours. The resultant lyophile was then further dried at 25° C. under high vacuum for 24 hours. […] The lyophile was packaged under clean conditions into 15 mL vials, each containing 10 mg of drug plus a 10% excess to allow for transfer and dispensing (vial/needle/syringe, VNS) losses.
# [3] = Aqueous solubility / formulation without surfactants; format: physicochemical
# Experimental: The epothilones of formula Ic may be formulated without the use of surfactants to a concentration of about at least 20 mg/mL with pH adjustment. If formulations containing a surfactant are desired, the lyophilized epothilone analogs represented by formula I, Ia, Ib and Ic are reconstituted with a mixture of equal parts by volume of Dehydrated Alcohol, USP and a nonionic surfactant, preferably a polyoxyethylated castor oil surfactant (available from GAF Corporation, Mount Olive, N.J., under the trademark, Cremophor EL). Alternately, an oral suspension can be prepared by pH adjustment and the use of a stabilizer, surfactant, and/or viscosity enhancing agent, and may be administered alone or with water or with a pharmaceutically acceptable acid neutralizing buffer.
# [4] = test system: taxane-sensitive and taxane-resistant tumor models; test: Anticancer activity in tumor models
# [5] = Clinical pharmacokinetics, 15-minute infusion once every three weeks; format: in vivo, human
# Experimental: (§1) Compound A was administered to human patients once every three (3) weeks as a 15-minute infusion, using an accelerated followed by modified Fibonacci dose escalation design. Twenty-two (22) patients were treated at does levels of 0.6, 1.2, 2.5, 5, 10, 20, 30 and 40 mg/m^2.
# [6] = Clinical toxicity in dose escalation study; format: in vivo; details: human patients
# Experimental: as §1
# [7] = human, 30 mg/m^2, cycle 1, mean, n=7
# [8] = plasma, intravenous, 30 mg/m2, human, 30 mg/m^2, cycle 1, mean, n=7
smiles,measurement,setting,value
"C/C(=C\c1csc(CN)n1)[C@@H]1C[C@@H]2O[C@]2(C)CCC[C@H](C)[C@H](O)[C@@H](C)C(=O)C(C)(C)[C@@H](O)CC(=O)O1 [Compound A, [1S-[1R*,3R*(E),7R*,10S*,11R*,12R*,16S*]]-3-[2-[2-(aminomethyl)-4-thiazolyl]-1-methylethenyl]-7,11-dihydroxy-8,8,10,12,16-pentamethyl-4,17-dioxabicyclo[14.1.0]heptadecane-5,9-dione]",time for 5% drug loss (t95),[1]; pH 2.5,< 0.2 h
same,time for 5% drug loss (t95),[1]; pH 7,approximately 14 h
same,degradation of the drug,[2],No detectable degradation
same,aqueous solubility,[3],water soluble
same,concentration formulated without surfactants,[3]; with pH adjustment,at least 20 mg/mL
same,anticancer activity,[4],demonstrated anticancer activity
same,time plasma concentrations near or above the preclinically determined effective concentration (MEC),[5]; four of the seven patients in the 30 mg/m2 cohort,about 8 hours
same,increases in AUC and CMAX,"[5]; human patients, 0.6 to 40 mg/m^2, preliminary pharmacokinetics",dose-related
same,C1t,[5]; [7],282 mL/min/m^2
same,Vss,[5]; [7],494 L/m^2
same,AUC,[5]; [8],2100 ng·h/mL
same,Cmax,[5]; [8],3430 ng/mL
same,half-life,[5]; [8],33 h
same,related toxicities,[6],"diarrhea, nausea, vomitting, anorexia, fatigue, anemia, alopecia, neuropathy, myalgia and neutropenia"
same,dose-limiting toxicity (DLT),[6]; 0.6 to 40 mg/m^2,No dose-limiting toxicity (DLT) was observed
